In brackets after ≈: the same amount, converted by molar mass. Where a SMILES comes first, the peptide text is derived from it. [ ]: non-standard residue; d: D form. The star is where a group is joined. dPhe(3,4-F2) = N[C@H](Cc1ccc(F)c(F)c1)C(=O)O; dPhe(3-Me) = Cc1cccc(C[C@@H](N)C(=O)O)c1; dPhe(3-F) = N[C@H](Cc1cccc(F)c1)C(=O)O; For = O=C*
Assays:
[1] = Metabolic stability in mouse liver microsomes; format: in vitro ADME; settings: 1 mg protein/mL; for half-life at 1 µM / microsomal CLint at 1 µM: mouse liver microsomes
Experimental: (§1) Evaluation of the metabolic stability of the macrocyclic tetrapeptides by human and mouse liver microsomes was performed by Curia Global (Buffalo, NY, USA). […]

DOR = DOR (Mus musculus, UniProt P32300); assay: 55 °C WWTW assay, antagonism of the DOR-selective agonist SNC80; settings: 3 or 4 30 mg/kg, p.o., 9 10 mg/kg, 2.5 h before SNC-80 100 nmol, i.c.v.
C57BL/6J mice [2] = assay: Stress-induced reinstatement of extinguished cocaine conditioned place preference
MOR = MOR (Mus musculus, UniProt P42866); assay: 55 °C WWTW assay, antagonism of the MOR-preferring agonist morphine; settings: 3 or 4 30 mg/kg, p.o., 9 10 mg/kg, 2.5 h before morphine 10 mg/kg, i.p.
hKOR [3] = target: T1, hKOR (Homo sapiens, UniProt P41145); assay: KOR cAMP assay using GloSensor-22F, antagonist mode (vs 10 nM U50,488); format: cell-based
Excerpt: A piggy-Bac (PB) transposon/transposase system was utilized to allow for the stable integration of the GloSensor-22F cAMP sensor (Promega, Madison, WI, USA) gene into genomic TTAA sites in Chinese hamster ovary cells already stably expressing the hKOR. The pFastBac hyperPB plasmid vector, which codes for the piggy-Bac transposon/transposase system, was utilized and was a kind gift from Dr. John Lueck. The multicistronic expression cassette developed for our experiments consisted of a CMV promoter driving constitutive expression of GloSensor-22F cAMP sensor, followed by an internal ribosome entry site (IRES) to drive the expression of codon-optimized HygR-P2A-mScarlet (hygromycin resistance gene and mScarlet separated by a 2A self-cleaving peptide element). To clone the expression cassette onto the pFastBac vector, the CMV promoter and GloSensor-22F were PCR amplified from pGloSensor-22F cAMP Plasmid (Promega), the IRES sequence was PCR amplified from pLVX-CMV-Galpha-oA ONE-GO (a gift from Dr. Mikel Garcia-Marcos, Addgene plasmid #189732), the HygR-P2A-mScarlet sequence was a kind gift from Dr. Lueck, and a bGH-poly(A) termination sequence was PCR amplified from pcDNA3.1(+). The pFastBac vector was linearized via overnight digestion with CspCI at 37 °C, which cuts between two inverted terminal repeat (ITR) sequences, and the corresponding backbone and all PCR fragments were gel purified and assembled via Gibson assembly using the Gibson Assembly MasterMix (New England Biolabs, Ipswich, MA, USA). The resulting pFastBac CMV GloSensor-22F IRES HygR-P2A-mScarlet bGH plasmid was transformed into NEB Stable Competent E. coli (New England Biolabs), miniprepped using the E.Z.N.A. Plasmid DNA Mini Kit (Omega Bio-Tek, Norcross, GA, USA), and sequence verified by nanopore whole-plasmid sequencing (Eurofins Genomics, Louisville, KY, USA).
3.0 × 10^6 hKOR-CHO cells were plated on a 6 cm dish and incubated for four h at 37 °C and 5% CO2 in DMEM (Corning Mediatech, Manassas, VA, USA) supplemented with 5% FBS (Corning Mediatech), 1% Penicillin/Streptomycin (Gibco, Waltham, MA, USA). The cells were then transfected with 2.0 μg pFastBac CMV GloSensor-22F IRES HygR-P2A-mScarlet bGH using PEI as a transfection reagent. The following day, transfected cells were reseeded onto a 10 cm dish at a density of 5.0 × 10^5 cells and 600 μg/mL hygromycin B (Gold Bio, St. Louis, MO, USA) was added to the culture media. Cells were cultured under selection antibiotics for seven days, and the selection process was monitored by the increase in abundance of mScarlet positive cells via epifluorescence microscopy.
Following the selection period, KOR-CHO-GLO cells were maintained at 37 °C and 5% CO2 in DMEM supplemented with 5% FBS, 1% Penicillin/Streptomycin and 300 μg/mL hygromycin B to reduce the likelihood of CMV promoter silencing. On the day of the assay, cells were detached with 0.05% trypsin (Gibco) and counted, then centrifuged (1000× g, 5 min) and resuspended in assay buffer (1xPBS, 0.1% glucose, 0.5 mM MgCl2) containing 4 mM D-luciferin substrate (Gold Bio) at approximately 2 million cells/mL. 25 μL of cells (~50,000/well) were seeded onto poly L-lysine-coated white 96-well flat bottom plates (Greiner Bio-One, Kremsmünster, Austria)) and returned to the incubator for 60 min. Following incubation, cells were allowed to equilibrate to room temperature protected from light (10–15 min). Initial luminescence readings (at least 10 cycles) were collected for each well using a FLUOstar Omega v.6.2 plate reader (BMG Labtech, Ortenberg, Germany), after which the plate was removed. Prepared 4x treatments of drug (25 μL) were added to appropriate wells followed by 50 μL of 20 μM forskolin (AmBeed, Buffalo Grove, IL, USA) before the plate was returned to the reader and luminescence measured until final plateau levels were achieved (20–30 min). Assays were performed in duplicate and repeated at least three times.

hKOR [4] = target: T1, hKOR; assay: Competition binding, [3H]U69,593, hKOR-CHO membranes; settings: for Ki: [3H]U69,593, human KOR, ± S.E.M., three independent experiments, read-out: KOR Ki
C57BL/6J mice [5] = assay: 55 °C warm-water tail-withdrawal assay, antinociception; format: in vivo, mouse; settings: for antinociception: p.o. dose response, significant only first 10 min at high doses
Experimental: For intracerebroventricular administration, peptides were dissolved in DMSO at a concentration of 20 mM (100 nmol/5 µL), then diluted to test doses in a final vehicle solution of 50%DMSO/50% saline (0.9%). For all other testing (for oral administration), peptides were made fresh each day for testing in a final vehicle solution of 10% DMSO/10% Solutol/80% saline (0.9%).
Intracerebroventricular injections were made directly into the lateral ventricle according to the modified steps detailed previously. The volume of all i.c.v. injections was 5 μL, using a 10 μL Hamilton microliter syringe. The mouse was lightly anesthetized with isoflurane, an incision was made in the scalp, and the injection was made 2 mm lateral and 2 mm caudal to bregma at a depth of 3 mm.
The dose response of analogs 3, 6, 9 and 14 were also assessed following administration of one of up to four additional oral (p.o.) doses (1–30 mg/kg).

[6] = Kinetic aqueous solubility; format: physicochemical; settings: 1% DMSO, pH 7.4
Excerpt: Table A1 Stability of [D-Trp]- and [D-Phe^4]CJ-15,208 and selected analogs in human (HLMs) and mouse liver microsomes (MLMs)^1. and kinetic aqueous solubility. | column: Solubility ^2 / (µM)

human MOR = target: T2, human MOR (Homo sapiens, UniProt P35372); assay: biochemical; format: binding; settings: [3H]DAMGO, human MOR; ± S.E.M., three independent experiments; read-out: MOR Ki
T2 construct: expressed in transfected cells

[7] = Metabolic stability in human liver microsomes; format: in vitro ADME; settings: 1 mg protein/mL; for half-life at 1 µM / microsomal CLint at 1 µM: human liver microsomes
Experimental: as §1

hKOR [8] = target: T1, hKOR; assay: KOR cAMP assay using GloSensor-22F, agonist mode (KOR-CHO-GLO cells); format: cell-based; settings: read-out: KOR Efficacy (%)
CNS KORs = CNS KORs (Mus musculus, UniProt P33534); assay: 55 °C WWTW assay, antagonism of centrally administered U50,488 (30 nmol, i.c.v.); settings: 2.5 h pretreatment; for antagonism of CNS KORs: 30 mg/kg, p.o. (9: 10 mg/kg, p.o.)
[9] = 1 µM compound, 37 °C, read-out: MLM t1/2
[10] = p.o. once daily for two days, 1.5 h prior to FSS
[11] = 1 µM compound, 37 °C, read-out: HLM t1/2
[12] = 30 mg/kg, p.o., 30 min after administration

| Compound | half-life at 1 µM [1, 9] [min] | microsomal CLint at 1 µM ([1]; read-out: MLM CLint) [µL/min/mg] | IC50 (hKOR [3]) [nM] | Selectivity (MOR Ki/KOR Ki) (hKOR [4]) | Ki (hKOR [4]) [nM] | antinociception (C57BL/6J mice [5]) [%] | solubility kinetic [6] [µM] | Ki (human MOR) [nM] | half-life at 1 µM [7, 11] [min] | microsomal CLint at 1 µM ([7]; read-out: HLM CLint) [µL/min/mg] | Emax at 10 µM (hKOR [8]) [%] | antagonism of CNS KORs (CNS KORs) | antinociception vs vehicle (C57BL/6J mice [5]; [12]) | also measured |
| --- | --- | --- | --- | --- | --- | --- | --- | --- | --- | --- | --- | --- | --- | --- |
| O=Cn1cc(C[C@H]2NC(=O)[C@H](Cc3ccccc3)NC(=O)[C@H]3CCCN3C(=O)[C@H](Cc3ccccc3)NC2=O)c2ccccc21 [Analog 3, [D-Trp(formamide)]CJ-15,208] (cyclo(F[dP]F[dW](For))) | 1.1 | 607 | 49 ± 5.4 | 41 | 2.2 ± 0.15 | < 20 | 4.6 (≈ 2.79 µg/mL) | 90 ± 14 | 2.8 | 244 | 9.2 ± 4.9 | significant antagonism |  | effect on antinociceptive effects of SNC80 (DOR): no significant effect; doses not preventing stress-induced reinstatement of cocaine CPP (C57BL/6J mice [2]; [10]): 10 mg/kg; doses preventing stress-induced reinstatement of cocaine CPP (C57BL/6J mice [2]; [10]): 30 mg/kg; fold lower dose for significant reduction of stress-induced reinstatement than [D-Trp]CJ-15,208 (C57BL/6J mice [2]; vs 60 mg/kg, p.o.): 2 fold; effect on antinociceptive effects of morphine (MOR): no significant effect; doses giving significant antagonism of CNS KORs (CNS KORs): 30 mg/kg, p.o.; doses not producing significant antagonism of CNS KORs (CNS KORs): 1–10 mg/kg, p.o. |
| O=C1N[C@H](Cc2cccc(F)c2)C(=O)N[C@@H](Cc2ccccc2)C(=O)N2CCC[C@@H]2C(=O)N[C@H]1Cc1ccccc1 [Analog 6, [D-Phe(m-F)^4]CJ-15,208] (cyclo(F[dP]F[dPhe(3-F)])) | 2.1 | 331 | 340 ± 58 | 5 | 32 ± 5.8 | < 20 | 26 (≈ 14.5 µg/mL) | 160 ± 15 | 1.8 | 376 | 11 ± 5.6 | ineffective |  |  |
| O=C1N[C@H](Cc2ccc(F)c(F)c2)C(=O)N[C@@H](Cc2ccccc2)C(=O)N2CCC[C@@H]2C(=O)N[C@H]1Cc1ccccc1 [Analog 8] (cyclo(F[dP]F[dPhe(3,4-F2)])) | 1.1 | 629 | 170 ± 28 | 9 | 6.6 ± 0.73 |  | 9.5 (≈ 5.46 µg/mL) | 57 ± 5.6 | 2.2 | 309 | 13 ± 2.7 |  | significant antinociception |  |
| Cc1cccc(C[C@H]2NC(=O)[C@H](Cc3ccccc3)NC(=O)[C@H]3CCCN3C(=O)[C@H](Cc3ccccc3)NC2=O)c1 [Analog 14, [D-Phe(m-Me)^4]CJ-15,208] (cyclo(F[dP]F[dPhe(3-Me)])) |  |  | 320 ± 67 | 5 | 26 ± 3 | < 20 | 19 (≈ 10.5 µg/mL) | 130 ± 11 |  |  | 0.74 ± 5.7 | ineffective |  | half-life ([1]; microsomes, 1 µM compound, 37 °C, read-out: MLM t1/2): 1.5 min; microsomal CLint ([1]; microsomes, read-out: MLM CLint): 467 µL/min/mg; half-life ([7]; microsomes, 1 µM compound, 37 °C, read-out: HLM t1/2): 4.1 min; microsomal CLint ([7]; microsomes, read-out: HLM CLint): 170 µL/min/mg |
| COc1ccc(C[C@H]2NC(=O)[C@H](Cc3ccccc3)NC(=O)[C@H]3CCCN3C(=O)[C@H](Cc3ccccc3)NC2=O)cc1 [Analog 18, [D-Tyr(Me)^4]CJ-15,208] (cyclo(F[dP]F[dY](Me))) |  |  |  |  | 150 ± 16 |  |  |  |  |  |  |  | significant antinociception |  |
| CN1CC[C@]23c4c5ccc(O)c4O[C@H]2[C@@H](O)C=C[C@H]3[C@H]1C5 [morphine, reference compound] |  |  |  |  |  |  |  |  |  |  |  |  | significant antinociception | antinociception vs vehicle (C57BL/6J mice [5]; 30 nmol, i.c.v., positive control): significant antinociception |
